Test [1] has as its target T1, Human PDGFRα, cytoplasmic domain (GST-PDGFRα) (Homo sapiens, UniProt P16234).
T1 construct: made in house
Put plainly: Human PDGFRα biochemical inhibition assay (off-chip Mobility Shift Assay).

Test [2] concerns the target T2, Human PDGFRβ, cytoplasmic domain (GST-PDGFRβ) (Homo sapiens, UniProt P09619).
T2 construct: made in house
The test can be described thus: Human PDGFRβ biochemical inhibition assay (off-chip Mobility Shift Assay). The method, boiled down: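 GST-tagged cytoplasmic domain (aa 557-1106) from baculovirus was incubated 1 h at room temperature with compound, CSKtide, ATP at Km and Mg²⁺ in HEPES buffer, pH 7.5. Phosphorylated and unphosphorylated peptide were separated by off-chip mobility shift, and the product ratio P/(P+S) gave percent inhibition.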

These results are taken from patent US20230102554A1 (GB002, INC., priority 2019, published 2023).

By IC50 is commonly meant the concentration needed to halve the response being measured.

T2 sequence (P09619 with tags, fused parts or gaps): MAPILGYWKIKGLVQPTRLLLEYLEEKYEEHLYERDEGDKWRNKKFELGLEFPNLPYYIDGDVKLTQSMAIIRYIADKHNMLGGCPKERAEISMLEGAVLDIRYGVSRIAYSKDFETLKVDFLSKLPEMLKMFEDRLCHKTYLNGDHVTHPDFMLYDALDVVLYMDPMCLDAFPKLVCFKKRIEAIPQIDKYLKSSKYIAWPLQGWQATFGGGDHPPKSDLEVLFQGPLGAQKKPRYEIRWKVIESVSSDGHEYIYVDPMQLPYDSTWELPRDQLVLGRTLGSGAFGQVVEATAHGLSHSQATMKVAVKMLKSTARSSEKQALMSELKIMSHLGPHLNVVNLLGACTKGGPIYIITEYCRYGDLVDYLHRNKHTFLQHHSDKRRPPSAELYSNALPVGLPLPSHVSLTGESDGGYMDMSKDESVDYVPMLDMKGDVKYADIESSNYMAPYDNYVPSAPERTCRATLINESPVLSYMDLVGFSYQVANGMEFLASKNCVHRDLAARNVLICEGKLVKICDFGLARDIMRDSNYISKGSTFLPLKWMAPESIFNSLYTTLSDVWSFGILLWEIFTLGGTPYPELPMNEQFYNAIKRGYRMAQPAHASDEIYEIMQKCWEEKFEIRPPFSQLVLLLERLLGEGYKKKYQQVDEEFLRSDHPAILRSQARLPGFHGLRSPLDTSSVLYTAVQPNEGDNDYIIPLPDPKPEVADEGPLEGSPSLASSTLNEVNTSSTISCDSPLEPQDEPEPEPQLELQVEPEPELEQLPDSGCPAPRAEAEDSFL
T1 sequence (P16234 550-1089 T674I): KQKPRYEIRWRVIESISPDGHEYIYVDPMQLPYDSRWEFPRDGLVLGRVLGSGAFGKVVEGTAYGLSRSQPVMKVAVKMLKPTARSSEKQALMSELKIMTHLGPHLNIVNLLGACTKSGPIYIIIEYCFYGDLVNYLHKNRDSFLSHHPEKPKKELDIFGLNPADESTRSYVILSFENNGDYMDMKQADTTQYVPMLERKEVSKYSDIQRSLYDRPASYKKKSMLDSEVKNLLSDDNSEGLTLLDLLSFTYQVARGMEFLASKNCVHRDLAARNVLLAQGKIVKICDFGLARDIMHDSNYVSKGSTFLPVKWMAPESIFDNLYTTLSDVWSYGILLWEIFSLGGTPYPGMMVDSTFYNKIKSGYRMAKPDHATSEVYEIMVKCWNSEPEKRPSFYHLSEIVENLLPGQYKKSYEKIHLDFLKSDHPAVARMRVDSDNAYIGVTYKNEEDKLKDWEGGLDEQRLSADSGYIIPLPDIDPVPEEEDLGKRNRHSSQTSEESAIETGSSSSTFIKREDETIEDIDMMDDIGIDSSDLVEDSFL

For `CCn1cc2ncc(N[C@@H](C)c3cc(NC(=O)c4cnc(C)c(C)c4)ccc3C)nc2n1` [Compound 509, (S)-N-(3-(1-((2-ethyl-2H-pyrazolo[3,4-b]pyrazin-6-yl)amino)ethyl)-4-methylphenyl)-5,6-dimethylnicotinamide], the half-inhibitory concentration (IC50) in test [1] and in test [2] was under 300 nM throughout.

Take `C[C@H](Nc1cnc2cnn(C)c2n1)c1cccc(NC(=O)c2cnc3c(c2)CCCO3)c1` [Compound 70, (S)-N-(3-(1-((1-methyl-1H-pyrazolo[3,4-b]pyrazin-6-yl)amino)ethyl)phenyl)-3,4-dihydro-2H-pyrano[2,3-b] pyridine-6-carboxamide]: the IC50 in test [1] and in test [2] was under 300 nM throughout.

As to `CCn1cc2ncc(N[C@@H](C)c3cc(NC(=O)Cc4cc(C)ccn4)ccc3C)nc2n1` [Compound 679, (S)-N-(3-(1-((2-ethyl-2H-pyrazolo[3,4-b]pyrazin-6-yl)amino)ethyl)-4-methylphenyl)-2-(4-methylpyridin-2-yl) acetamide], the IC50 in test [1] and in test [2] was under 300 nM throughout.

As to `CC(C)c1cc(C(=O)Nc2cccc([C@H](C)Nc3cnc4[nH]ncc4n3)c2)no1` [Compound 530, (S)-N-(3-(1-((1H-pyrazolo[3,4-b]pyrazin-5-yl)amino)ethyl)phenyl)-5-isopropylisoxazole-3-carboxamide], the IC50 in test [1] and in test [2] was under 300 nM throughout.

On to `Cc1cc(C(=O)Nc2cccc([C@H](C)Nc3cnc4cnn(C)c4n3)c2)cnc1N1CCN(C)CC1` [Compound 195, (S)-5-methyl-N-(3-(1-((1-methyl-1H-pyrazolo[3,4-b]pyrazin-6-yl)amino)ethyl)phenyl)-6-(4-methylpiperazin-1-yl)nicotinamide], for which the IC50 in test [1] and in test [2] was under 300 nM in each case.

`CCn1cc2ncc(N[C@@H](C)c3cccc(NC(=O)c4ccc(NC(C)C)nc4)c3)nc2n1` [Compound 395, (S)-N-(3-(1-((2-ethyl-2H-pyrazolo[3,4-b]pyrazin-6-yl)amino)ethyl)phenyl)-6-(isopropylamino)nicotinamide]: the IC50 in test [1] is under 300 nM; in test [2], 300 to 1000 nM.

For the compound `CC(C)c1cc(C(=O)Nc2cccc([C@H](C)Nc3cnc4cnn(C)c4n3)c2)nn1C` [Compound 162, (S)-5-isopropyl-1-methyl-N-(3-(1-((1-methyl-1H-pyrazolo[3,4-b]pyrazin-6-yl)amino)ethyl)phenyl)-1H-pyrazole-3-carboxamide], the IC50 in test [1] and in test [2] was under 300 nM each time.

Turning to `CCn1cnc2ncc(C(=O)Nc3cccc([C@H](C)Nc4cnc5cnn(C)c5n4)c3)cc21` [Compound 265, (S)-1-ethyl-N-(3-(1-((1-methyl-1H-pyrazolo[3,4-b]pyrazin-6-yl)amino)ethyl)phenyl)-1H-imidazo[4,5-b]pyridine-6-carboxamide], the IC50 in test [1] and in test [2] was under 300 nM each time.

For the compound `C[C@H](Nc1cnc2cn[nH]c2n1)c1cccc(NC(=O)c2cncc(C(C)(C)F)c2)c1` [Compound 94, (S)-N-(3-(1-((1H-pyrazolo[3,4-b]pyrazin-6-yl)amino)ethyl)phenyl)-5-(2-fluoropropan-2-yl) nicotinamide], the IC50 in test [1] and in test [2] was under 300 nM each time.

In the case of `Cc1cncc(C(=O)Nc2cccc([C@H](C)Nc3cnc4[nH]c(=O)n(C)c4n3)c2)c1` [Compound 12, (S)-5-methyl-N-(3-(1-((3-methyl-2-oxo-2,3-dihydro-1H-imidazo[4,5-b]pyrazin-5-yl)amino)ethyl)phenyl)nicotinamide], the IC50 in test [1] and in test [2] was under 300 nM each time.

With `CCn1cc2ncc(N[C@@H](C)c3cccc(NC(=O)c4cnc(OC)c(Cl)c4)c3)nc2n1` [Compound 356, (S)-5-chloro-N-(3-(1-((2-ethyl-2H-pyrazolo[3,4-b]pyrazin-6-yl)amino)ethyl)phenyl)-6-methoxynicotinamide], the IC50 in test [1] and in test [2] was under 300 nM in each case.

For `CCn1cc2ncc(N[C@@H](C)c3cc(NC(=O)Cc4ccc(C5CC5)nc4)ccc3C)nc2n1` [Compound 665, (S)-2-(6-cyclopropylpyridin-3-yl)-N-(3-(1-((2-ethyl-2H-pyrazolo[3,4-b]pyrazin-6-yl)amino)ethyl)-4-methylphenyl) acetamide], the concentration for half-maximal inhibition (IC50) in test [1] is under 300 nM; in test [2] it was at least 1000 nM.

With `CCc1cc(C(=O)Nc2cccc([C@H](C)Nc3cnc4cn(CC)nc4n3)c2)ccc1CN1CCN(C)CC1` [Compound 498, (S)-3-ethyl-N-(3-(1-((2-ethyl-2H-pyrazolo[3,4-b]pyrazin-6-yl)amino)ethyl)phenyl)-4-((4-methylpiperazin-1-yl)methyl) benzamide], the IC50 in test [1] and in test [2] was under 300 nM in each case.

Turning to `COC(=O)c1ccc(C(=O)Nc2cccc([C@H](C)Nc3cnc4cnn(C)c4n3)c2)cn1` [Compound 212, methyl (S)-5-((3-(1-((1-methyl-1H-pyrazolo[3,4-b]pyrazin-6-yl)amino)ethyl)phenyl)carbamoyl) picolinate], the IC50 was 300 to 1000 nM in test [1] and at least 1000 nM in test [2].

Take `CCn1cc2ncc(N[C@@H](C)c3cc(NC(=O)Cc4cncc(C(F)(F)F)c4)ccc3C)nc2n1` [Compound 692, (S)-N-(3-(1-((2-ethyl-2H-pyrazolo[3,4-b]pyrazin-6-yl)amino)ethyl)-4-methylphenyl)-2-(5-(trifluoromethyl)pyridin-3-yl)acetamide]: the IC50 in test [1] and in test [2] was under 300 nM each time.

Regarding `Cc1cncc(C(=O)Nc2cccc([C@H](C)Nc3cnc4[nH]c(-c5cnn(C)c5)nc4c3)c2)c1` [Compound 602, (S)-5-methyl-N-(3-(1-((2-(1-methyl-1H-pyrazol-4-yl)-3H-imidazo[4,5-b]pyridin-6-yl)amino)ethyl)phenyl) nicotinamide], the IC50 in test [1] and in test [2] was under 300 nM in each case.

As to `CCn1ncc2ncc(N[C@@H](C)c3cccc(NC(=O)c4cncc(C)c4)c3)nc21` [Compound 176, (S)-N-(3-(1-((1-ethyl-1H-pyrazolo[3,4-b]pyrazin-6-yl)amino)ethyl)phenyl)-5-methylnicotinamide], the IC50 in test [1] and in test [2] was under 300 nM throughout.

As for `CCn1cc2ncc(N[C@@H](C)c3cccc(NC(=O)c4cnc(N5CCCC5)s4)c3)nc2n1` [Compound 326, (S)-N-(3-(1-((2-ethyl-2H-pyrazolo[3,4-b]pyrazin-6-yl)amino)ethyl)phenyl)-2-(pyrrolidin-1-yl)thiazole-5-carboxamide], the half-maximal inhibitory concentration (IC50) in test [1] and in test [2] was under 300 nM each time.

As for `CCn1cc2ncc(N[C@@H](C)c3cc(NC(=O)c4ccc(N5CCN(C)CC5)c(C)c4)ccc3F)nc2n1` [Compound 412, (S)-N-(3-(1-((2-ethyl-2H-pyrazolo[3,4-b]pyrazin-6-yl)amino)ethyl)-4-fluorophenyl)-3-methyl-4-(4-methylpiperazin-1-yl)benzamide], the IC50 in test [1] and in test [2] was under 300 nM each time.

For the compound `CCn1cc2ncc(N[C@@H](C)c3cccc(NC(=O)Cc4ccc5c(n4)CCC5)c3)nc2n1` [Compound 718, (S)-2-(6,7-dihydro-5H-cyclopenta[b]pyridin-2-yl)-N-(3-(1-((2-ethyl-2H-pyrazolo[3,4-b]pyrazin-6-yl)amino)ethyl)phenyl)acetamide], the results for the IC50 in test [1] and in test [2] were under 300 nM and at least 1000 nM, respectively.

Turning to `CCn1cc2ncc(N[C@@H](C)c3cc(NC(=O)Cc4cncc(C(F)(F)F)c4)ccc3F)nc2n1` [Compound 685, (S)-N-(3-(1-((2-ethyl-2H-pyrazolo[3,4-b]pyrazin-6-yl)amino)ethyl)-4-fluorophenyl)-2-(5-(trifluoromethyl)pyridin-3-yl) acetamide], the figures for the IC50 in test [1] and in test [2] were under 300 nM and 300 to 1000 nM, respectively.

In the case of `Cc1cncc(C(=O)Nc2cccc([C@H](C)Nc3cnc4cnn(C)c4n3)c2)c1` [Compound 8, (S)-5-methyl-N-(3-(1-((1-methyl-1H-pyrazolo[3,4-b]pyrazin-6-yl)amino)ethyl)phenyl)nicotinamide], the IC50 in test [1] and in test [2] was under 300 nM throughout.

`CCn1cc2ncc(N[C@@H](C)c3cccc(NC(=O)Nc4ccc(N(C)C)nc4)c3)nc2n1` [Compound 739, (S)-1-(6-(dimethylamino)pyridin-3-yl)-3-(3-(1-((2-ethyl-2H-pyrazolo[3,4-b]pyrazin-6-yl)amino)ethyl)phenyl)urea]: the IC50 in test [1] is under 300 nM; in test [2], at least 1000 nM.

`Cc1n[nH]c2ncc(N[C@@H](C)c3cccc(NC(=O)c4cnn(CCF)c4)c3)nc12` [Compound 544, (S)-1-(2-fluoroethyl)-N-(3-(1-((3-methyl-1H-pyrazolo[3,4-b]pyrazin-5-yl)amino)ethyl)phenyl)-1H-pyrazole-4-carboxamide]: the IC50 in test [1] and in test [2] was under 300 nM each time.

On to `CCn1cc2ncc(N[C@@H](C)c3cc(NC(=O)Cc4cc(Cl)ccn4)ccc3C)nc2n1` [Compound 677, (6)-2-(4-chloropyridin-2-yl)-N-(3-(1-((2-ethyl-2H-pyrazolo[3,4-b]pyrazin-6-yl)amino)ethyl)-4-methylphenyl)acetamide], for which the IC50 in test [1] and in test [2] was under 300 nM each time.

Consider `Cc1cncc(C(=O)Nc2cccc([C@H](C)Nc3cncc4c3ccn4-c3cnn(C)c3)c2)c1` [Compound 748, (S)-5-methyl-N-(3-(1-((1-(1-methyl-1H-pyrazol-4-yl)-1H-pyrrolo[2,3-c]pyridin-4-yl)amino)ethyl)phenyl) nicotinamide], for which the IC50 in test [1] is under 300 nM; in test [2] it was 300 to 1000 nM.

Regarding `Cc1cncc(C(=O)Nc2cccc([C@H](C)Nc3cnc4cn(CCN5CCOCC5)nc4n3)c2)c1` [Compound 278, (S)-5-methyl-N-(3-(1-((2-(2-morpholinoethyl)-2H-pyrazolo[3,4-b]pyrazin-6-yl)amino)ethyl)phenyl) nicotinamide], the IC50 in test [1] is 300 to 1000 nM; in test [2], at least 1000 nM.
